# Laboratory results as given in US20040063662A1, “Selenophene anti-tumor agents” (priority 1996, published 2004).
# Assays:
# CCRF-CEM = assay: NCI human tumor cell panel: CCRF-CEM (Leukemia); type: cell-based
# LOX IMVI = assay: NCI human tumor cell panel: LOX IMVI (Melanoma); type: cell-based
# SN12C = assay: NCI human tumor cell panel: SN12C (Renal Cancer); type: cell-based
# PC-3 = assay: NCI human tumor cell panel: PC-3 (Prostate Cancer); type: cell-based
# 786-0 = assay: NCI human tumor cell panel: 786-0 (Renal Cancer); type: cell-based
# NCI-H522 = assay: NCI human tumor cell panel: NCI-H522 (Non-Small Cell Lung Cancer)
# OVCAR-8 = assay: NCI human tumor cell panel: OVCAR-8 (Ovarian Cancer); type: cell-based
# OVCAR-3 = assay: NCI human tumor cell panel: OVCAR-3 (Ovarian Cancer); type: cell-based
# RPMI-8226 = assay: NCI human tumor cell panel: RPMI-8226 (Leukemia); type: cell-based
# UACC-62 = assay: NCI human tumor cell panel: UACC-62 (Melanoma); type: cell-based
# MOLT-4 = assay: NCI human tumor cell panel: MOLT-4 (Leukemia); type: cell-based
# SW-620 = assay: NCI human tumor cell panel: SW-620 (Colon Cancer); type: cell-based
# ACHN = assay: NCI human tumor cell panel: ACHN (Renal Cancer); type: cell-based
# UO-31 = assay: NCI human tumor cell panel: UO-31 (Renal Cancer); type: cell-based
# HS 578T = assay: NCI human tumor cell panel: HS 578T (Breast Cancer); type: cell-based
# SF-295 = assay: NCI human tumor cell panel: SF-295 (CNS Cancer); type: cell-based
# HOP-92 = assay: NCI human tumor cell panel: HOP-92 (Non-Small Cell Lung Cancer)
# NCI-H23 = assay: NCI human tumor cell panel: NCI-H23 (Non-Small Cell Lung Cancer); type: cell-based
# U251 = assay: NCI human tumor cell panel: U251 (CNS Cancer); type: cell-based
# DU-145 = assay: NCI human tumor cell panel: DU-145 (Prostate Cancer); type: cell-based
# BT-549 = assay: NCI human tumor cell panel: BT-549 (Breast Cancer); type: cell-based
# HCT-15 = assay: NCI human tumor cell panel: HCT-15 (Colon Cancer); type: cell-based
# SNB-19 = assay: NCI human tumor cell panel: SNB-19 (CNS Cancer); type: cell-based
# OVCAR-4 = assay: NCI human tumor cell panel: OVCAR-4 (Ovarian Cancer); type: cell-based; conditions: OVCAR-4, read-out: Log10 GI50 (converted)
# HOP-62 = assay: NCI human tumor cell panel: HOP-62 (Non-Small Cell Lung Cancer); type: cell-based
# HT29 = assay: NCI human tumor cell panel: HT29 (Colon Cancer); type: cell-based
# A549/ATCC = assay: NCI human tumor cell panel: A549/ATCC (Non-Small Cell Lung Cancer); type: cell-based
# EKVX = assay: NCI human tumor cell panel: EKVX (Non-Small Cell Lung Cancer); type: cell-based
# HCT-116 = assay: NCI human tumor cell panel: HCT-116 (Colon Cancer); type: cell-based
# MALME-3M = assay: NCI human tumor cell panel: MALME-3M (Melanoma); type: cell-based; conditions: Malme-3M
# SF-539 = assay: NCI human tumor cell panel: SF-539 (CNS Cancer); type: cell-based
# MDA-N = assay: NCI human tumor cell panel: MDA-N (Breast Cancer); type: cell-based
# [1] = read-out: Log10 GI50 (converted)
# [2] = read-out: Log10 TGI (converted)
smiles,measurement,setting,value
OCc1ccc(-c2ccc(-c3ccc(CO)[se]3)s2)[se]1 [compound 676632],GI50,CCRF-CEM; [1],87.1 µM
same,IC (TGI),CCRF-CEM; [2],> 100 µM
same,GI50,LOX IMVI; [1],> 100 µM
same,IC (TGI),LOX IMVI; [2],< 100 µM
same,GI50,SN12C; [1],> 100 µM
same,IC (TGI),SN12C; [2],> 100 µM
same,GI50,"PC-3; PC-3, read-out: Log10 GI50 (converted)",> 100 µM
same,IC (TGI),"PC-3; PC-3, read-out: Log10 TGI (converted)",> 100 µM
same,GI50,"786-0; 786-0, read-out: Log10 GI50 (converted)",> 100 µM
same,IC (TGI),"786-0; 786-0, read-out: Log10 TGI (converted)",> 100 µM
same,GI50,"NCI-H522; NCI-H522, read-out: Log10 GI50 (converted)",> 100 µM
same,IC (TGI),"NCI-H522; NCI-H522, read-out: Log10 TGI",> 100 µM
same,GI50,"OVCAR-8; OVCAR-8, read-out: Log10 GI50 (converted)",> 100 µM
same,IC (TGI),"OVCAR-8; OVCAR-8, read-out: Log10 TGI (converted)",> 100 µM
same,GI50,"OVCAR-3; OVCAR-3, read-out: Log10 GI50 (converted)",0.0195 µM
same,IC (TGI),"OVCAR-3; OVCAR-3, read-out: Log10 TGI (converted)",0.0676 µM
same,GI50,"RPMI-8226; RPMI-8226, read-out: Log10 GI50 (converted)",> 100 µM
same,IC (TGI),"RPMI-8226; RPMI-8226, read-out: Log10 TGI",> 100 µM
same,GI50,"UACC-62; UACC-62, read-out: Log10 GI50 (converted)",0.0224 µM
same,IC (TGI),"UACC-62; UACC-62, read-out: Log10 TGI (converted)",0.0562 µM
same,GI50,"MOLT-4; MOLT-4, read-out: Log10 GI50 (converted)",> 100 µM
same,IC (TGI),"MOLT-4; MOLT-4, read-out: Log10 TGI (converted)",> 100 µM
same,GI50,"SW-620; SW-620, read-out: Log10 GI50 (converted)",> 100 µM
same,IC (TGI),"SW-620; SW-620, read-out: Log10 TGI (converted)",> 100 µM
same,GI50,ACHN; [1],> 100 µM
same,IC (TGI),ACHN; [2],> 100 µM
same,GI50,"UO-31; UO-31, read-out: Log10 GI50 (converted)",> 100 µM
same,IC (TGI),"UO-31; UO-31, read-out: Log10 TGI (converted)",> 100 µM
same,GI50,HS 578T; [1],> 100 µM
same,IC (TGI),HS 578T; [2],> 100 µM
same,GI50,"SF-295; SF-295, read-out: Log10 GI50 (converted)",> 100 µM
same,IC (TGI),"SF-295; SF-295, read-out: Log10 TGI (converted)",> 100 µM
same,GI50,"HOP-92; HOP-92, read-out: Log10 GI50 (converted)",> 100 µM
same,CC50,"HOP-92; HOP-92, read-out: Log10 LC50 (converted)",> 100 µM
same,IC (TGI),"HOP-92; HOP-92, read-out: Log10 TGI",> 100 µM
same,GI50,"NCI-H23; NCI-H23, read-out: Log10 GI50 (converted)",> 100 µM
same,IC (TGI),"NCI-H23; NCI-H23, read-out: Log10 TGI (converted)",> 100 µM
same,GI50,"U251; U-251, U251, read-out: Log10 GI50 (converted)",0.0355 µM
same,IC (TGI),"U251; U-251, U251, read-out: Log10 TGI (converted)",12 µM
same,GI50,"DU-145; DU-145, read-out: Log10 GI50 (converted)",95.5 µM
same,IC (TGI),"DU-145; DU-145, read-out: Log10 TGI (converted)",> 100 µM
same,GI50,"BT-549; BT-549, read-out: Log10 GI50 (converted)",0.195 µM
same,IC (TGI),"BT-549; BT-549, read-out: Log10 TGI (converted)",> 100 µM
same,GI50,"HCT-15; HCT-15, read-out: Log10 GI50 (converted)",0.0447 µM
same,IC (TGI),"HCT-15; HCT-15, read-out: Log10 TGI (converted)",> 100 µM
same,GI50,"SNB-19; SNB-19, read-out: Log10 GI50 (converted)",42.7 µM
same,IC (TGI),"SNB-19; SNB-19, read-out: Log10 TGI (converted)",> 100 µM
same,GI50,OVCAR-4,0.135 µM
same,GI50,"HOP-62; HOP-62, read-out: Log10 GI50 (converted)",0.0759 µM
same,IC (TGI),"HOP-62; HOP-62, read-out: Log10 TGI (converted)",> 100 µM
same,GI50,"HT29; HT-29, HT29, read-out: Log10 GI50 (converted)",> 100 µM
same,IC (TGI),"HT29; HT-29, HT29, read-out: Log10 TGI (converted)",> 100 µM
same,GI50,A549/ATCC; [1],2.63 µM
same,IC (TGI),A549/ATCC; [2],> 100 µM
same,GI50,EKVX; [1],50.1 µM
same,IC (TGI),EKVX; [2],> 100 µM
same,GI50,"HCT-116; HCT-116, read-out: Log10 GI50 (converted)",> 100 µM
same,IC (TGI),"HCT-116; HCT-116, read-out: Log10 TGI (converted)",> 100 µM
same,GI50,MALME-3M; [1],> 100 µM
same,IC (TGI),MALME-3M; [2],> 100 µM
same,GI50,"SF-539; SF-539, read-out: Log10 GI50 (converted)",> 100 µM
same,IC (TGI),"SF-539; SF-539, read-out: Log10 TGI (converted)",> 100 µM
same,GI50,MDA-N; [1],> 100 µM
same,IC (TGI),MDA-N; [2],> 100 µM
